Like-named read-outs stand apart in the source and are kept apart here.
How the values were obtained:
[1] = tested on: SARS-CoV-2; experiment: Cytopathic effect (CPE) suppression effect confirmation test using HEK293T/ACE2-TMPRSS2 cells; type: cell-based; settings: Severe acute respiratory syndrome coronavirus 2, HEK-293T, 72 h
[2] = molecular target: Recombinant SARS-CoV-2 3CL Protease (Severe acute respiratory syndrome coronavirus 2 (2019-nCoV) (SARS-CoV-2), UniProt P0DTD1); experiment: biochemical; type: biochemical
[3] = read-out: EC50 (50% SARS-CoV-2 infected cell death inhibitory concentration), class, HEK293T/ACE2-TMPRSS2 cells, CPE suppression, CellTiter-Glo 2.0 after 3 days culture
[4] = 50% SARS-CoV-2 3CL protease inhibitory concentration, read-out: IC50
[5] = HEK293T/ACE2-TMPRSS2 cells, CPE suppression, CellTiter-Glo 2.0 after 3 days culture, read-out: EC50 (50% SARS-CoV-2 infected cell death inhibitory concentration), class
[6] = read-out: EC50 (50% SARS-CoV-2 infected cell death inhibitory concentration), HEK293T/ACE2-TMPRSS2 cells, CPE suppression, CellTiter-Glo 2.0 after 3 days culture

| Compound | EC50 [1, 3] | IC50 [2, 4] | EC50 [1, 5] | IC50 [2] | EC50 [1, 6] |
| --- | --- | --- | --- | --- | --- |
| Cc1cncc(-n2c(=O)c(Oc3cc(F)c(F)c(F)c3)c(-c3cc4ccccc4s3)n(CC#N)c2=O)c1 [Compound I-018] | < 100 nM | < 10 nM | – | – | – |
| Cc1cncc(-n2c(=O)c(Cc3cc(F)c(F)c(F)c3)c(-c3cc4ccccc4s3)n(CC#N)c2=O)c1 [Compound I-019] | < 100 nM | < 10 nM | – | – | – |
| Cc1cncc(-n2c(=O)c(-c3ccc(F)c(Cl)c3)c(-c3cc4ccccc4s3)n(CC#N)c2=O)c1 [Compound I-020] | < 100 nM | < 10 nM | – | – | – |
| N#CCn1c(N2CC3(CCCO3)C2)c(-c2ccc(F)c(Cl)c2)c(=O)n(-c2cncc(Cl)c2)c1=O [Compound I-021] | < 100 nM | < 10 nM | – | – | – |
| Cc1cncc(-n2c(=O)c(-c3ccc(F)c(Cl)c3)c(-c3cnc(C)nc3)n(CC#N)c2=O)c1 [Compound I-022] | < 100 nM | < 10 nM | – | – | – |
| Cc1cncc(-n2c(=O)c(-c3ccc(F)c(Cl)c3)c(N3Cc4ccccc4C3=O)n(CC#N)c2=O)c1 [Compound I-023] | < 100 nM | < 10 nM | – | – | – |
| Cc1cncc(-n2c(=O)c(-c3ccc(F)c(Cl)c3)c(N(C)Cc3ccccc3)n(CC#N)c2=O)c1 [Compound I-025] | < 100 nM | < 10 nM | – | – | – |
| Cc1cncc(-n2c(=O)c(-c3ccc(F)c(Cl)c3)c(-c3cc4ccccc4[nH]3)n(CC#N)c2=O)c1 [Compound I-026] | < 100 nM | < 10 nM | – | – | – |
| Cc1cncc(-n2c(=O)c(-c3ccc(F)c(Cl)c3)c(-c3ccc(C(=O)OC(C)(C)C)cc3)n(CC#N)c2=O)c1 [Compound I-027] | 100 to 1000 nM | > 100 nM | – | – | – |
| Cc1cncc(-n2c(=O)c(-c3ccc(F)c(Cl)c3)c(Oc3cccc4[nH]ccc34)n(CC#N)c2=O)c1 [Compound I-028] | < 100 nM | < 10 nM | – | – | – |
| Cc1cncc(-n2c(=O)c(-c3ccc(F)c(Cl)c3)c(Oc3cccc4ccccc34)n(CC#N)c2=O)c1 [Compound I-029] | < 100 nM | < 10 nM | – | – | – |
| Cc1cncc(-n2c(=O)c(-c3ccc(F)c(Cl)c3)c(Oc3ccc(F)cc3Cl)n(CC#N)c2=O)c1 [Compound I-030] | < 100 nM | < 10 nM | – | – | – |
| Cc1cncc(-n2c(=O)c(Cc3cc(F)c(F)c(F)c3)c(-c3ccc(C(F)(F)F)c(Cl)c3)n(CC#N)c2=O)c1 [Compound I-031] | < 100 nM | < 10 nM | – | – | – |
| Cc1cc(-n2c(=O)c(-c3cc(F)c(F)c(Cl)c3)c(N3CC4(CCOCC4)C3)n(CC#N)c2=O)cc(=O)[nH]1 [Compound I-032] | 100 to 1000 nM | < 10 nM | – | – | – |
| Cc1cc(-n2c(=O)c(-c3cc(F)c(F)c(Cl)c3)c(N3CC4(C3)CC(F)(F)C4)n(CC#N)c2=O)cc(=O)[nH]1 [Compound I-033] | 100 to 1000 nM | < 10 nM | – | – | – |
| Cc1cc(-n2c(=O)c(-c3cc(F)c(F)c(Cl)c3)c(N3CCC(C(F)(F)F)CC3)n(CC#N)c2=O)cc(=O)[nH]1 [Compound I-034] | – | 10 to 100 nM | < 100 nM | – | – |
| Cc1cnnc(-n2c(=O)c(Cc3cc(F)c(F)c(F)c3)c(N3C[C@H]4C[C@@H](C3)O4)n(CC#N)c2=O)c1 [Compound I-035] | 100 to 1000 nM | > 100 nM | – | – | – |
| Cc1cnnc(-n2c(=O)c(Cc3cc(F)c(F)c(F)c3)c(N3CC4(CCOC4)C3)n(CC#N)c2=O)c1 [Compound I-036] | 100 to 1000 nM | > 100 nM | – | – | – |
| N#CCn1c(N2CC3(CCOC3)C2)c(Cc2cc(F)c(F)c(F)c2)c(=O)n(-c2cnc3ccccn23)c1=O [Compound I-037] | – | 10 to 100 nM | 100 to 1000 nM | – | – |
| N#CCn1c(N2CC3CCC(CC3)C2)c(Cc2cc(F)c(F)c(F)c2)c(=O)n(-c2cnc3ccccn23)c1=O [Compound I-038] | < 100 nM | – | – | 10 to 100 nM | – |
| Cc1cnnc(-n2c(=O)c(Cc3cc(F)c(F)c(F)c3)c(N3Cc4ccccc4C3)n(CC#N)c2=O)c1 [Compound I-039] | < 100 nM | < 10 nM | – | – | – |
| N#CCn1c(N2Cc3ccccc3C2)c(Cc2cc(F)c(F)c(F)c2)c(=O)n(-c2cnc3ccccn23)c1=O [Compound I-040] | < 100 nM | < 10 nM | – | – | – |
| CCCOc1cc(Cl)cc(-c2c(N3Cc4ccccc4C3)n(CC#N)c(=O)n(-c3cncc(C)c3)c2=O)c1 [Compound I-041] | < 100 nM | < 10 nM | – | – | – |

| Compound | EC50 [1, 3] | IC50 [2, 4] | EC50 [1, 5] | IC50 [2] | EC50 [1, 6] |
| --- | --- | --- | --- | --- | --- |
| Cc1cncc(-n2c(=O)c(-c3cccc(Cl)c3)c(N3Cc4ccccc4C3)n(CC#N)c2=O)c1 [Compound I-042] | < 100 nM | < 10 nM | – | – | – |
| N#CCn1c(N2CC3(CCOC3)C2)c(-c2ccc(F)c(Cl)c2)c(=O)n(-c2cnc3ccccn23)c1=O [Compound I-043] | – | 10 to 100 nM | 100 to 1000 nM | – | – |
| Cc1cncc(-n2c(=O)c(-c3ccc(F)c(Cl)c3)c(N3CCC4(CCNC4=O)CC3)n(CC#N)c2=O)c1 [Compound I-044] | 100 to 1000 nM | < 10 nM | – | – | – |
| Cc1cncc(-n2c(=O)c(-c3ccc(F)c(Cl)c3)c(N3CC4(CCOC4)C3)n(CC#N)c2=O)c1 [Compound I-045] | < 100 nM | < 10 nM | – | – | – |
| Cc1cncc(-n2c(=O)c(Cc3cc(F)c(F)c(F)c3)c(/C=C/CO)n(CC#N)c2=O)c1 [Compound I-047] | 100 to 1000 nM | > 100 nM | – | – | – |
| Cc1cncc(-n2c(=O)c(Cc3cc(F)c(F)c(F)c3)c(-c3ccc(C)c(C)c3)n(C3(C#N)CC3)c2=O)c1 [Compound I-049] | – | 10 to 100 nM | 100 to 1000 nM | – | – |
| Cc1cncc(-n2c(=O)c(Cc3cc(F)c(F)c(F)c3)c(CCCO)n(CC#N)c2=O)c1 [Compound I-052] | – | 10 to 100 nM | < 100 nM | – | – |
| N#CCn1c(N2Cc3cn[nH]c3C2)c(Cc2cc(F)c(F)c(F)c2)c(=O)n(-c2cc[nH]c(=O)c2)c1=O [Compound I-053] | – | 32 nM | – | – | 2610 nM |
| N#CCn1c(Cl)c(-c2ccc(F)c(Cl)c2)c(=O)n(-c2cncc(Cl)c2)c1=O [Compound I-055] | – | 10 to 100 nM | 100 to 1000 nM | – | – |
| Cc1ccc(-c2c(Cc3cc(F)c(F)c(F)c3)c(=O)n(-c3cncc(Cl)c3)c(=O)n2CC#N)cc1C [Compound I-058] | < 100 nM | < 10 nM | – | – | – |
| N#CCn1c(N2CC3(CCOC3)C2)c(Cc2cc(F)c(F)c(F)c2)c(=O)n(-c2cncc(Cl)c2)c1=O [Compound I-059] | < 100 nM | < 10 nM | – | – | – |
| Cc1cncc(-n2c(=O)c(Cc3cc(F)c(F)c(F)c3)c(-c3ccc(C)c(C)c3)n(CC#N)c2=O)c1 [Compound I-060] | – | 4.7 nM | – | – | 19 nM |
| N#CCn1c(N2Cc3cn[nH]c3C2)c(Cc2cc(F)c(F)c(F)c2)c(=O)n(-c2cncc(Cl)c2)c1=O [Compound I-064] | < 100 nM | < 10 nM | – | – | – |
| Cc1cncc(-n2c(=O)c(Cc3cc(F)c(F)c(F)c3)c(-c3ccc(C)c(C)c3)n(C(C)(C)C#N)c2=O)c1 [Compound I-065] | < 100 nM | < 10 nM | – | – | – |
| Cc1cncc(-n2c(=O)c(-c3ccc(F)c(Cl)c3)c(-c3ccc(C(F)(F)F)c(Cl)c3)n(CC#N)c2=O)c1 [Compound I-066] | < 100 nM | < 10 nM | – | – | – |
| N#CCn1c(N2CCC3(CC2)CNC(=O)O3)c(-c2ccc(F)c(Cl)c2)c(=O)n(-c2cncc(Cl)c2)c1=O [Compound I-067] | 100 to 1000 nM | < 10 nM | – | – | – |
| CN1CCN(c2c(-c3ccc(F)c(Cl)c3)c(=O)n(-c3cncc(Cl)c3)c(=O)n2CC#N)CC1=O [Compound I-068] | < 100 nM | < 10 nM | – | – | – |
| N#CCn1c(N2CCC(C(F)(F)F)CC2)c(-c2ccc(F)c(Cl)c2)c(=O)n(-c2cncc(Cl)c2)c1=O [Compound I-069] | < 100 nM | < 10 nM | – | – | – |
| Cc1cncc(-n2c(=O)c(-c3ccc(F)c(Cl)c3)c(-c3ccc(C4CC4)cc3)n(CC#N)c2=O)c1 [Compound I-071] | < 100 nM | < 10 nM | – | – | – |
| CC(C)(O)C1CN(c2c(-c3ccc(F)c(Cl)c3)c(=O)n(-c3cncc(Cl)c3)c(=O)n2CC#N)C1 [Compound I-072] | – | 0.66 nM | – | – | 5.21 nM |
| Cc1cncc(-n2c(=O)c(-c3ccc(F)c(Cl)c3)c(N3CC4(C3)CC(F)(F)C4)n(CC#N)c2=O)c1 [Compound I-073] | < 100 nM | < 10 nM | – | – | – |
| Cc1cncc(-n2c(=O)c(-c3ccc(F)c(Cl)c3)c(N3Cc4cn[nH]c4C3)n(CC#N)c2=O)c1 [Compound I-074] | < 100 nM | < 10 nM | – | – | – |
| Cc1cncc(-n2c(=O)c(-c3ccc(F)c(Cl)c3)c(N3Cc4cccnc4C3)n(CC#N)c2=O)c1 [Compound I-075] | < 100 nM | < 10 nM | – | – | – |
